Reference: ChEMBL document CHEMBL1201862, “PubChem BioAssay data set” (2004)
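Interpolation was linear, between the two tested concentrations surrounding the appropriate level; five concentrations were tested over 48 hours in 96-well plates. At the GI50, growth is halved.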 Calls of active or inactive are those of the source. Cut-off read from the data, not from the text of the source: active = GI50 up to about 1.1 µM and inactive = higher.

Tests used:
Assay in all cases: inhibition of tumour cell growth, NCI panel, 48 h
HCC 2998 = system: HCC 2998
HOP-62 = system: HOP-62
HOP-92 = system: HOP-92
KM12 = system: KM12
M14 = system: M14
MCF7 = system: MCF7
Malme-3M = system: Malme-3M
NCI-H226 = system: NCI-H226
NCI-H23 = system: NCI-H23
NCI-H460 = system: NCI-H460
NCI-H522 = system: NCI-H522
NCI/ADR-RES = system: NCI/ADR-RES
OVCAR-3 = system: OVCAR-3
OVCAR-4 = system: OVCAR-4
RXF 393 = system: RXF 393
SF-268 = system: SF-268
SF-295 = system: SF-295
SK-MEL-2 = system: SK-MEL-2
SNB-19 = system: SNB-19
BT-549 = system: BT-549

SMILES | GI50 (HCC 2998) | GI50 (HOP-62) | GI50 (HOP-92) | GI50 (KM12) | GI50 (M14) | GI50 (MCF7) | GI50 (Malme-3M) | GI50 (NCI-H226) | GI50 (NCI-H23) | GI50 (NCI-H460) | GI50 (NCI-H522) | GI50 (NCI/ADR-RES) | GI50 (OVCAR-3) | GI50 (OVCAR-4) | GI50 (RXF 393) | GI50 (SF-268) | GI50 (SF-295) | GI50 (SK-MEL-2) | GI50 (SNB-19) | GI50 (BT-549)
Cc1ccc(S(=O)(=O)n2c3c(c4ccccc42)CCN2C(=O)C(S(=O)(=O)c4ccccc4)=CCC32)cc1 (centres undefined) | 0.212 µM (active) | 0.24 µM (active) | 0.149 µM (active) | 0.194 µM (active) | 0.175 µM (active) | 0.164 µM (active) | 0.213 µM (active) | 1.77 µM (inactive) | 0.158 µM (active) | 0.368 µM (active) | 0.259 µM (active) | 0.218 µM (active) | 0.164 µM (active) | 0.179 µM (active) | 0.14 µM (active) | 0.238 µM (active) | 1.79 µM (inactive) | 0.217 µM (active) | 0.652 µM (active) | 
CN(C)C(=S)N1C(=S)N(c2ccccc2)C(=N/c2ccccc2)/C1=N\c1ccccc1 | > 100 µM (inactive) | > 100 µM (inactive) | > 100 µM (inactive) | > 100 µM (inactive) |  |  | > 100 µM (inactive) | > 100 µM (inactive) | > 100 µM (inactive) | > 100 µM (inactive) | 6.82 µM (inactive) | > 100 µM (inactive) |  | > 100 µM (inactive) | > 100 µM (inactive) | > 100 µM (inactive) | > 100 µM (inactive) | > 100 µM (inactive) | > 100 µM (inactive) | 
O=C(Nc1cccc(Cc2cccc(NC(=O)c3ccccc3)c2)c1)c1ccccc1 | > 100 µM (inactive) | 22 µM (inactive) | 9.77 µM (inactive) | > 100 µM (inactive) | 55.1 µM (inactive) |  | 23.3 µM (inactive) | 29 µM (inactive) | 33.1 µM (inactive) | 36.1 µM (inactive) | 25.2 µM (inactive) |  | 26.9 µM (inactive) | 6.79 µM (inactive) | 14.8 µM (inactive) | 34 µM (inactive) | 16.5 µM (inactive) | 52.4 µM (inactive) | 25.4 µM (inactive) | 
O=C(CC(C(=O)c1cccs1)c1ccsc1)c1ccc(Cl)cc1 (centres undefined) | > 100 µM (inactive) | > 100 µM (inactive) |  | > 100 µM (inactive) | > 100 µM (inactive) | > 100 µM (inactive) | > 100 µM (inactive) | 81.8 µM (inactive) | > 100 µM (inactive) | > 100 µM (inactive) |  | 83.8 µM (inactive) |  | > 100 µM (inactive) |  | > 100 µM (inactive) | > 100 µM (inactive) | > 100 µM (inactive) | > 100 µM (inactive) | 
CC1=CC(=O)/C(=C(/C)NCCN(CCN/C(C)=C2\C(=O)C=C(C)OC2=O)CCN/C(C)=C2\C(=O)C=C(C)OC2=O)C(=O)O1 | > 100 µM (inactive) | > 100 µM (inactive) |  | > 100 µM (inactive) | > 100 µM (inactive) | > 100 µM (inactive) |  |  |  | > 100 µM (inactive) | > 100 µM (inactive) | > 100 µM (inactive) |  | > 100 µM (inactive) |  | > 100 µM (inactive) | > 100 µM (inactive) |  | > 100 µM (inactive) | 
C=CCOC(=O)N1c2ccc(O)cc2[C@@]23O[C@@]24[C@@H]1C#C/C=C\C#C[C@]3(O)C(OC)(OC)C[C@@H]4C | 63.1 µM (inactive) | 34.6 µM (inactive) | 16.4 µM (inactive) | 24.9 µM (inactive) | 23.8 µM (inactive) | 35 µM (inactive) | 26.8 µM (inactive) | 24.9 µM (inactive) | 24.4 µM (inactive) | 24.4 µM (inactive) | 31.3 µM (inactive) | 32.3 µM (inactive) |  | 0.258 µM (active) | 41.7 µM (inactive) | 36.5 µM (inactive) | 36.9 µM (inactive) | 24.2 µM (inactive) | 58.2 µM (inactive) | 
Cc1ccc(S(=O)(=O)N(/N=C(\N)Oc2ccc(Cl)cc2)C(=N)Oc2ccc(Cl)cc2)cc1 | > 100 µM (inactive) | > 100 µM (inactive) | > 100 µM (inactive) | > 100 µM (inactive) | > 100 µM (inactive) |  | > 100 µM (inactive) | > 100 µM (inactive) | > 100 µM (inactive) | > 100 µM (inactive) | > 100 µM (inactive) |  | > 100 µM (inactive) | > 100 µM (inactive) | 74.1 µM (inactive) | > 100 µM (inactive) | > 100 µM (inactive) | > 100 µM (inactive) | > 100 µM (inactive) | 
COC(=O)C(CNC(=O)/C=C/c1ccc(OC(C)=O)c(OC(C)=O)c1)NC(=O)/C=C/c1ccc(OC(C)=O)c(OC(C)=O)c1 (centres undefined) | > 100 µM (inactive) | > 100 µM (inactive) | > 100 µM (inactive) | > 100 µM (inactive) | > 100 µM (inactive) | > 100 µM (inactive) | > 100 µM (inactive) | > 100 µM (inactive) | > 100 µM (inactive) | > 100 µM (inactive) | 32.1 µM (inactive) |  | > 100 µM (inactive) | > 100 µM (inactive) | > 100 µM (inactive) | > 100 µM (inactive) | > 100 µM (inactive) | > 100 µM (inactive) | 93.3 µM (inactive) | > 100 µM (inactive)
O=C1CCC[C@]2(CCCC(=O)N2)C1 | > 100 µM (inactive) | > 100 µM (inactive) | > 100 µM (inactive) | > 100 µM (inactive) | > 100 µM (inactive) |  | > 100 µM (inactive) | > 100 µM (inactive) | > 100 µM (inactive) | > 100 µM (inactive) | > 100 µM (inactive) |  | > 100 µM (inactive) | > 100 µM (inactive) | > 100 µM (inactive) | > 100 µM (inactive) | > 100 µM (inactive) | > 100 µM (inactive) | > 100 µM (inactive) | 
O=C1NC(=S)NC(=O)C1=Cc1ccc([N+](=O)[O-])o1 | 60.7 µM (inactive) | > 100 µM (inactive) | 20.7 µM (inactive) | 46.6 µM (inactive) | 15.7 µM (inactive) |  | 14.7 µM (inactive) | > 100 µM (inactive) | 16.9 µM (inactive) | > 100 µM (inactive) | 19.9 µM (inactive) |  |  | 17.3 µM (inactive) | 19.3 µM (inactive) | 39.8 µM (inactive) | 78.3 µM (inactive) | 46.9 µM (inactive) | > 100 µM (inactive) | 
O=[N+]([O-])c1ccc(/C=C/c2csnn2)cc1 | > 100 µM (inactive) | > 100 µM (inactive) | 70.5 µM (inactive) | > 100 µM (inactive) | > 100 µM (inactive) |  | > 100 µM (inactive) | > 100 µM (inactive) | > 100 µM (inactive) | > 100 µM (inactive) | > 100 µM (inactive) |  | > 100 µM (inactive) | > 100 µM (inactive) | > 100 µM (inactive) | > 100 µM (inactive) | > 100 µM (inactive) | > 100 µM (inactive) | > 100 µM (inactive) | 
CCCCCCCCCCCCCCCCOCC(COP(=O)([O-])OCC[n+]1ccc(N(C)C)cc1)OCC (centres undefined) | 13.7 µM (inactive) | 12.3 µM (inactive) | 17 µM (inactive) | 0.0527 µM (active) | 12.4 µM (inactive) | 19.2 µM (inactive) | 18.5 µM (inactive) | 17.2 µM (inactive) | 18.6 µM (inactive) | 12.1 µM (inactive) | 12.8 µM (inactive) |  | 11.4 µM (inactive) | 15.8 µM (inactive) | 16.3 µM (inactive) | 10.8 µM (inactive) | 16.5 µM (inactive) | 13.4 µM (inactive) | 2.8 µM (inactive) | 7.74 µM (inactive)
COc1cc2c3cc1Oc1c(OC)c(OC)cc4c1[C@@H](Cc1ccc(O)c(c1)Oc1ccc(cc1)C[C@@H]3N(C)CC2)N(C)CC4.c1ccccc1 | 7.93 µM (inactive) | 18.1 µM (inactive) | 8.28 µM (inactive) | 10.9 µM (inactive) | 4.61 µM (inactive) |  | 17.2 µM (inactive) | 22.2 µM (inactive) | 24.1 µM (inactive) | 25.2 µM (inactive) | 7.55 µM (inactive) |  | 14.4 µM (inactive) |  | 12.4 µM (inactive) | 23.2 µM (inactive) | 16.4 µM (inactive) | 16.9 µM (inactive) | 20.4 µM (inactive) | 
Nc1ncnc2c1ncn2C1C=CC(CP(=O)(O)O)C1 (centres undefined) | > 100 µM (inactive) | > 100 µM (inactive) |  | > 100 µM (inactive) | > 100 µM (inactive) | > 100 µM (inactive) | > 100 µM (inactive) | > 100 µM (inactive) | > 100 µM (inactive) | > 100 µM (inactive) |  | > 100 µM (inactive) | > 100 µM (inactive) | > 100 µM (inactive) | > 100 µM (inactive) | > 100 µM (inactive) | > 100 µM (inactive) | > 100 µM (inactive) | > 100 µM (inactive) | 
CC1=C(N2CC2)C(=O)c2nc3n(c2C1=O)CCC3O (centres undefined) | 0.151 µM (active) | 0.126 µM (active) | 2.23 µM (inactive) | 0.233 µM (active) | 1.32 µM (inactive) |  | 0.176 µM (active) | 0.697 µM (active) | 0.104 µM (active) | 0.092 µM (active) | 0.145 µM (active) |  | 0.275 µM (active) | 0.0662 µM (active) | 0.187 µM (active) | 0.104 µM (active) | 0.166 µM (active) | 0.7 µM (active) | 0.269 µM (active) | 0.0171 µM (active)
C/C(=C\Cc1cc(O)ccc1O)CCc1c(C)cc(O)c(C=O)c1C [PANICEIN B3] | 43.2 µM (inactive) |  | 18.9 µM (inactive) | 32.3 µM (inactive) | 23.5 µM (inactive) |  | 21.3 µM (inactive) | 22.5 µM (inactive) | 22.5 µM (inactive) | 24.3 µM (inactive) | 10.1 µM (inactive) |  | 24.9 µM (inactive) | 26.4 µM (inactive) | 15.9 µM (inactive) | 15.8 µM (inactive) | 27 µM (inactive) | 23 µM (inactive) | 44.5 µM (inactive) | 
